#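 Compound exposure: 48 hours, 5 concentrations, 96-well plates. GI50: concentration for 50% inhibition of growth. TGI denotes the concentration required for complete inhibition of growth.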
# Key:
# Assay in all cases: NCI anticancer screen, dose series, 48 h
# SNB-19 CNS = system: SNB-19 CNS
# SK-MEL-2 melanoma = system: SK-MEL-2 melanoma
# MDA-MB-231 breast = system: MDA-MB-231 breast
# COLO 205 colon = system: COLO 205 colon
# U251 CNS = system: U251 CNS
# UO-31 renal = system: UO-31 renal
# CCRF-CEM leukemia = system: CCRF-CEM leukemia
# NCI/ADR-RES ovarian = system: NCI/ADR-RES ovarian
# SR leukemia = system: SR leukemia
# 786-0 renal = system: 786-0 renal
# OVCAR-3 ovarian = system: OVCAR-3 ovarian
# CAKI-1 renal = system: CAKI-1 renal
# MDA-MB-435 = system: MDA-MB-435
# PC-3 prostate = system: PC-3 prostate
# HT29 colon = system: HT29 colon
# SNB-75 CNS = system: SNB-75 CNS
# DU-145 prostate = system: DU-145 prostate
# MALME-3M melanoma = system: MALME-3M melanoma
# IGROV1 ovarian = system: IGROV1 ovarian
# HOP-92 NSCLC = system: HOP-92 NSCLC
# UACC-62 melanoma = system: UACC-62 melanoma
# K-562 leukemia = system: K-562 leukemia
# RPMI-8226 leukemia = system: RPMI-8226 leukemia
# NCI-H226 lung = system: NCI-H226 lung
# HL-60(TB) leukemia = system: HL-60(TB) leukemia
# SN12C renal = system: SN12C renal
# HS 578T breast = system: HS 578T breast
# MOLT-4 leukemia = system: MOLT-4 leukemia
# OVCAR-8 ovarian = system: OVCAR-8 ovarian
# HCT-15 colon = system: HCT-15 colon
# RXF 393 renal = system: RXF 393 renal
# SK-MEL-28 melanoma = system: SK-MEL-28 melanoma
# LOX IMVI melanoma = system: LOX IMVI melanoma
# HCC-2998 colon = system: HCC-2998 colon
# A498 renal = system: A498 renal
# NCI-H460 lung = system: NCI-H460 lung
# SF-268 CNS = system: SF-268 CNS
# SF-539 CNS = system: SF-539 CNS
# NCI-H522 lung = system: NCI-H522 lung
# HCT-116 colon = system: HCT-116 colon
# SK-MEL-5 melanoma = system: SK-MEL-5 melanoma
# SF-295 CNS = system: SF-295 CNS
# T-47D breast = system: T-47D breast
# HOP-62 NSCLC = system: HOP-62 NSCLC
# MCF7 breast = system: MCF7 breast
# OVCAR-5 ovarian = system: OVCAR-5 ovarian
# ACHN renal = system: ACHN renal
# SW-620 colon = system: SW-620 colon
structure (smiles),measurement,setting,value
Cc1nc2ccccc2c(/C=C/c2ccc(Cl)cc2)c1C(=O)/C=C/c1ccc(F)cc1,GI50,SNB-19 CNS,1540 nM
same,TGI,SNB-19 CNS,2890 nM
same,GI50,SK-MEL-2 melanoma,1870 nM
same,TGI,SK-MEL-2 melanoma,3790 nM
same,GI50,MDA-MB-231 breast,1920 nM
same,TGI,MDA-MB-231 breast,4770 nM
same,GI50,COLO 205 colon,2080 nM
same,TGI,COLO 205 colon,4910 nM
same,GI50,U251 CNS,1440 nM
same,TGI,U251 CNS,2920 nM
same,GI50,UO-31 renal,1150 nM
same,TGI,UO-31 renal,2360 nM
same,GI50,CCRF-CEM leukemia,1260 nM
same,TGI,CCRF-CEM leukemia,> 100000 nM
same,GI50,NCI/ADR-RES ovarian,1850 nM
same,TGI,NCI/ADR-RES ovarian,4110 nM
same,GI50,SR leukemia,704 nM
same,TGI,SR leukemia,5470 nM
same,GI50,786-0 renal,1780 nM
same,TGI,786-0 renal,3480 nM
same,GI50,OVCAR-3 ovarian,1460 nM
same,TGI,OVCAR-3 ovarian,2800 nM
same,GI50,CAKI-1 renal,1110 nM
same,TGI,CAKI-1 renal,2310 nM
same,GI50,MDA-MB-435,1550 nM
same,TGI,MDA-MB-435,3210 nM
same,GI50,PC-3 prostate,1600 nM
same,TGI,PC-3 prostate,3710 nM
same,GI50,HT29 colon,1210 nM
same,TGI,HT29 colon,7540 nM
same,GI50,SNB-75 CNS,1160 nM
same,TGI,SNB-75 CNS,2370 nM
same,GI50,DU-145 prostate,1680 nM
same,TGI,DU-145 prostate,3650 nM
same,GI50,MALME-3M melanoma,1640 nM
same,TGI,MALME-3M melanoma,3010 nM
same,GI50,IGROV1 ovarian,1150 nM
same,TGI,IGROV1 ovarian,2690 nM
same,GI50,HOP-92 NSCLC,1190 nM
same,TGI,HOP-92 NSCLC,2890 nM
same,GI50,UACC-62 melanoma,1490 nM
same,TGI,UACC-62 melanoma,2910 nM
same,GI50,K-562 leukemia,1200 nM
same,TGI,K-562 leukemia,> 100000 nM
same,GI50,RPMI-8226 leukemia,1370 nM
same,TGI,RPMI-8226 leukemia,4480 nM
same,GI50,NCI-H226 lung,1680 nM
same,TGI,NCI-H226 lung,3570 nM
same,GI50,HL-60(TB) leukemia,1570 nM
same,TGI,HL-60(TB) leukemia,4130 nM
same,GI50,SN12C renal,1810 nM
same,TGI,SN12C renal,4070 nM
same,GI50,HS 578T breast,2170 nM
same,TGI,HS 578T breast,5940 nM
same,GI50,MOLT-4 leukemia,1190 nM
same,TGI,MOLT-4 leukemia,7200 nM
same,GI50,OVCAR-8 ovarian,1620 nM
same,TGI,OVCAR-8 ovarian,4160 nM
same,GI50,HCT-15 colon,1060 nM
same,TGI,HCT-15 colon,2910 nM
same,GI50,RXF 393 renal,1660 nM
same,TGI,RXF 393 renal,3160 nM
same,GI50,SK-MEL-28 melanoma,1810 nM
same,TGI,SK-MEL-28 melanoma,3350 nM
same,GI50,LOX IMVI melanoma,1320 nM
same,TGI,LOX IMVI melanoma,2610 nM
same,GI50,HCC-2998 colon,1530 nM
same,TGI,HCC-2998 colon,3010 nM
same,GI50,A498 renal,1790 nM
same,TGI,A498 renal,3220 nM
same,GI50,NCI-H460 lung,1390 nM
same,TGI,NCI-H460 lung,2850 nM
same,GI50,SF-268 CNS,1520 nM
same,TGI,SF-268 CNS,3040 nM
same,GI50,SF-539 CNS,1760 nM
same,TGI,SF-539 CNS,3250 nM
same,GI50,NCI-H522 lung,1440 nM
same,TGI,NCI-H522 lung,4040 nM
same,GI50,HCT-116 colon,531 nM
same,TGI,HCT-116 colon,2140 nM
same,GI50,SK-MEL-5 melanoma,1620 nM
same,TGI,SK-MEL-5 melanoma,2970 nM
same,GI50,SF-295 CNS,1750 nM
same,TGI,SF-295 CNS,3220 nM
same,GI50,T-47D breast,1100 nM
same,TGI,T-47D breast,2860 nM
same,GI50,HOP-62 NSCLC,1890 nM
same,TGI,HOP-62 NSCLC,3710 nM
same,GI50,MCF7 breast,781 nM
same,TGI,MCF7 breast,4320 nM
same,GI50,OVCAR-5 ovarian,1630 nM
same,TGI,OVCAR-5 ovarian,3490 nM
same,GI50,ACHN renal,1510 nM
same,TGI,ACHN renal,2830 nM
same,GI50,SW-620 colon,1420 nM
same,TGI,SW-620 colon,3430 nM
